# Experimental data from patent US10005774B2, “Syk inhibitors” (Gilead Sciences, Inc., priority 2013, dated 2018).
# Where two headings read alike, the source gives them in different places.
# Target: Syk (Homo sapiens, UniProt P43405)
# Experiment: High Throughput Syk Biochemical Assay (KinEASE TR-FRET)
# Details: 20 μM ATP, 1 μM biotinylated peptide, 0.015 nM Syk, 30 min at room temperature
# Method in brief: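 Compounds in DMSO dilution series were tested against Syk, which phosphorylates an XL665-tagged peptide. The phosphoproduct was bound by Eu-labelled phosphotyrosine antibody in a two-step endpoint format.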
Molecule,"IC50 (TABLE D, read-out: IC50)","IC50 (table 'ALL NEW COMPOUNDS IN 2014', read-out: Syk IC50)"
"COc1ccc(-c2cc3ncn(C(F)F)c3c(O[C@H](C)[C@H]3CNC(=O)C34CC4)n2)cc1OC [(R)-7-((R)-1-((3-(difluoromethyl)-6-(3,4-dimethoxyphenyl)-3H-imidazo[4,5-c]pyridin-4-yl)oxy)ethyl)-5-azaspiro[2.4]heptan-4-one]",38 nM,–
"C[C@@H](Oc1nc(-c2cnn(C(C)(C)C)c2)cc2ncn(C(F)F)c12)[C@H]1CNC(=O)C12CC2 [(R)-7-((R)-1-((6-(1-(tert-butyl)-1H-pyrazol-4-yl)-3-(difluoromethyl)-3H-imidazo[4,5-c]pyridin-4-yl)oxy)ethyl)-5-azaspiro[2.4]heptan-4-one]",35.1 nM,–
"C[C@@H](Oc1nc(-c2ccc(S(=O)(=O)N(C)C)cc2)cc2ncn(C)c12)[C@H]1CNC(=O)C1 [N,N-dimethyl-4-(3-methyl-4-((R)-1-((R)-5-oxopyrrolidin-3-yl)ethoxy)-3H-imidazo[4,5-c]pyridin-6-yl)benzenesulfonamide]",13.4 nM,–
"C[C@@H](Oc1nc(-c2ccc(N3CCN(C(=O)OC(C)(C)C)CC3)cc2)cc2ncn(C)c12)[C@H]1CNC(=O)C1 [tert-butyl 4-(4-(3-methyl-4-((R)-1-((R)-5-oxopyrrolidin-3-yl)ethoxy)-3H-imidazo[4,5-c]pyridin-6-yl)phenyl)piperazine-1-carboxylate]",18.3 nM,–
"(R)-4-((R)-1-((3-cyclopropyl-6-(3,4-dimethoxyphenyl)-3H-imidazo[4,5-c]pyridin-4-yl)oxy)ethyl)pyrrolidin-2-one",–,6.57 nM
